# Source: BindingDB's records for doi:10.1111/cbdd.12572 (Depaul University, 2015)
# Biological target: T1, Caspase-1 (Homo sapiens, UniProt P29466)
# T1 sequence (P29466 whole entry): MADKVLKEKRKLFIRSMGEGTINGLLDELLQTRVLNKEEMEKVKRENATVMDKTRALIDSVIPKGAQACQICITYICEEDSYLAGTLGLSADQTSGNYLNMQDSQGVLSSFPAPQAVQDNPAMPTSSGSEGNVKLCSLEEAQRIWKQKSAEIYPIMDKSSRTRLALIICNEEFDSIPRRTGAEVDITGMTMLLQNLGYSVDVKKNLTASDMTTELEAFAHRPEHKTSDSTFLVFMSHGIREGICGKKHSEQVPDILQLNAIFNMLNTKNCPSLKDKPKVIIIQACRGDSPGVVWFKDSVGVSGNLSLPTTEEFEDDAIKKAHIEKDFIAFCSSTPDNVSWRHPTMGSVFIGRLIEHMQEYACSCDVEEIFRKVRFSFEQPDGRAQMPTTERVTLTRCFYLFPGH
# Assay: Inhibition Assay
# Conditions: pH 7.5; 25 °C
# Method: All assays were performed at 100 µL total volume in triplicate and monitored for 60 minutes at room temperature in a 96-well plate format in HEPES Buffer (100 mM HEPES, 100 mM NaCl, 0.1% CHAPS, 10% sucrose, pH 7.5) on a BioTek Synergy H1 plate reader. Fluorescence was measured with excitation and emission wavelengths of 380 nm and 460 nm, respectively. Caspase-1 was activated with 100 µM DTT for 30 minutes and held constant at 5 nM for all assays. WEHD-AMC was used as a substrate for all assays at 10 µM unless otherwise specified and reactions were monitored immediately upon addition to caspase-1.
row,IC50 [nM],Structure (SMILES)
1,> 10000,CCCCCC#CCC#CCC#CCC#CCCCC(=O)O
2,2230,N#C/C(=C\c1ccc(O)c(O)c1)C(=O)OC/C=C/c1ccccc1
3,1800,"CCN(CC)C(=S)SSC(=S)N(CC)CC [1,1',1'',1'''-[disulfanediylbis(carbonothioylnitrilo)]tetraethane]"
4,600,CCCCCCCCCCCCCCCC(=O)OC[C@H](O)[C@H]1OC(=O)C(O)=C1O [Ascorbyl Palmitate]
5,> 10000,"CC(Cc1ccc(O)c(O)c1)C(C)Cc1ccc(O)c(O)c1 (stereo not drawn) [LOX inhibitor, N/A]"
6,840,"CCCCCCCCOC(=O)/C=C/c1ccc(O)c(O)c1 [Octyl (2E)‐3‐(3,4‐dihydroxyphenyl)prop‐2‐enoate (E6)]"
7,167,Cc1c(C)c2c(c(C)c1O)CC[C@](C)(CN1CCN(c3cc(N4CCCC4)nc(N4CCCC4)n3)CC1)O2 [U83836E (B8)]
8,6760,"CC/C=C\C/C=C\C/C=C\C/C=C\C/C=C\C/C=C\CCC(=O)O [all-cis-docosa-4,7,10,13,16,19-hexaenoic acid]"

row,Structure (SMILES),IC50 [nM]
1,O=c1c2ccccc2[se]n1-c1ccccc1 [2-Phenyl-benzo[d]isoselenazol-3-one],4040
2,"CC1=CC(=O)C(C(C)C)=CC1=O [2-methyl-5-(propan-2-yl)cyclohexa-2,5-diene-1,4-dione (F8)]",1080
3,CC1(C)CCC2=C(O1)c1ccccc1C(=O)C2=O [R115 (Reactive Blue 2)],1690
4,Cc1cc2c(C(C)C)c(O)c(O)c(C=O)c2c(O)c1-c1c(C)cc2c(C(C)C)c(O)c(O)c(C=O)c2c1O [Tash 1],1230
5,C[C@]12C=CC(=O)C=C1CC[C@@H]1C2=CC[C@]2(C)[C@@H](C(=O)CN3CCN(c4cc(N5CCCC5)nc(N5CCCC5)n4)CC3)CC[C@@H]12 [U74389G (B9)],174
